Data on six compounds can be found in ChEMBL document CHEMBL3994655, “Methylsulfonyl benzothiazoles (MSBT) derivatives: Search for new potential antimicrobial and anticancer agents” (2017).

One assay concerns Pseudomonas aeruginosa. Put plainly: Antibacterial activity against Pseudomonas aeruginosa M5 after 24 to 48 hrs by macro-broth dilution method. Format: functional. In general terms: In broth dilution the organism is exposed to a series of concentrations in liquid medium.
In assay [1] the test system is Escherichia coli. Put plainly: Antibacterial activity against Escherichia coli ATCC 20732 after 24 to 48 hrs by macro-broth dilution method. Format: functional.
Assay [2] concerns Escherichia coli. Put plainly: Antibacterial activity against Escherichia coli ATCC 35421 after 24 to 48 hrs by macro-broth dilution method. In kind it is functional.
Assay [3] has as its system Staphylococcus aureus. Put plainly: Antibacterial activity against Staphylococcus aureus 209P assessed as zone of inhibition at 5 mg/ml by agar well diffusion method. Format: functional. To be noted: read-out: DIZ.
For assay [4], the system named is HeLa. Put plainly: Cytotoxicity against human HeLa cells assessed as cell growth at 10^-7 M after 48 hrs by SRB assay relative to control. Format: functional. To be noted: read-out: Activity. (Sulforhodamine B stains cellular protein and so reports cell mass.)
The subject of assay [5] is Escherichia coli. In words: Antibacterial activity against Escherichia coli ATCC 35421 assessed as zone of inhibition at 5 mg/ml by agar well diffusion method. Format: functional. The following applies: read-out: DIZ. (In general: A growth-free zone around the sample is the usual read-out of agar diffusion tests.)
Assay [6] concerns Staphylococcus aureus. In words: Antibacterial activity against Staphylococcus aureus 209P assessed as zone of inhibition at 1 mg/ml by agar well diffusion method. Format: functional. To be noted: read-out: DIZ.
The test system of assay [7] is HeLa. Put plainly: Cytotoxicity against human HeLa cells assessed as cell growth at 10^-4 M after 48 hrs by SRB assay relative to control. To be noted: read-out: Activity. Format: functional.
Assay [8] deals with Candida albicans. In words: Antifungal activity against Candida albicans A01 assessed as zone of inhibition at 5 mg/ml by agar well diffusion method. The following applies: read-out: DIZ. Format: functional.
The test system of assay [9] is Escherichia coli. In words: Antibacterial activity against Escherichia coli ATCC 35421 assessed as zone of inhibition at 1 mg/ml by agar well diffusion method. To be noted: read-out: DIZ. In kind it is functional.
The subject of assay [10] is Candida albicans. In words: Antifungal activity against Candida albicans A01 assessed as zone of inhibition at 1 mg/ml by agar well diffusion method. In kind it is functional. The following applies: read-out: DIZ.
Assay [11] deals with HeLa. In words: Cytotoxicity against human HeLa cells assessed as cell growth at 10^-6 M after 48 hrs by SRB assay relative to control. Format: functional. To be noted: read-out: Activity.
For assay [12], the system named is HeLa. Put plainly: Growth inhibition of human HeLa cells after 48 hrs by SRB assay. Format: functional.
Assay [13] has as its system HeLa. Put plainly: Cytotoxicity against human HeLa cells assessed as reduction in cell viability after 48 hrs by SRB assay. Format: functional, cell-based.
For assay [14], the system named is HeLa. In words: Cytotoxicity against human HeLa cells assessed as cell growth at 10^-5 M after 48 hrs by SRB assay relative to control. Format: functional. The following applies: read-out: Activity.
In assay [15] the test system is Pichia kudriavzevii. Put plainly: Antifungal activity against Candida krusei G03 after 24 to 48 hrs by macro-broth dilution method. Format: functional.
Assay [16] relates to Nakaseomyces glabratus. Put plainly: Antifungal activity against Candida glabrata H04 after 24 to 48 hrs by macro-broth dilution method. Format: functional.
The subject of assay [17] is Staphylococcus aureus. In words: Antibacterial activity against Staphylococcus aureus 209P after 24 to 48 hrs by macro-broth dilution method. Format: functional.
The subject of assay [18] is Candida albicans. In words: Antifungal activity against Candida albicans ATCC 10231 after 24 to 48 hrs by macro-broth dilution method. Format: functional.
For assay [19], the system named is Candida albicans. Put plainly: Antifungal activity against Candida albicans A01 after 24 to 48 hrs by macro-broth dilution method. In kind it is functional.
For assay [20], the system named is Staphylococcus epidermidis. In words: Antibacterial activity against Staphylococcus epidermidis 209E after 24 to 48 hrs by macro-broth dilution method. In kind it is functional.
Assay [21] deals with Staphylococcus aureus. Put plainly: Antibacterial activity against methicillin-resistant Staphylococcus aureus 3710 after 24 to 48 hrs by macro-broth dilution method. In kind it is functional.
Assay [22] deals with Nakaseomyces glabratus. Put plainly: Antifungal activity against Candida glabrata H05 after 24 to 48 hrs by macro-broth dilution method. In kind it is functional.
The test system of assay [23] is Staphylococcus aureus. Put plainly: Antibacterial activity against methicillin-resistant Staphylococcus aureus ATCC 33591 after 24 to 48 hrs by macro-broth dilution method. Format: functional.
Assay [24] concerns Pichia kudriavzevii. In words: Antifungal activity against Candida krusei G06 after 24 to 48 hrs by macro-broth dilution method. Format: functional.

Broadly, the MIC is the lowest concentration that inhibits growth of the organism. High values mean a need for much substance, low ones inhibition by little substance. For orientation: GI50 means the concentration at which growth is held to half of that of the control. A lower GI50 goes with greater sensitivity of the cells. What is called LC50 is the concentration that kills 50% of the test population. Read a low LC50 as a more lethal substance. As a reminder, the TGI is the concentration giving total growth inhibition. A higher TGI goes with less potent growth arrest.

Values after ≈ are worked out from the molar mass of the structure shown.

For the compound GENTAMICIN, the MIC with Pseudomonas aeruginosa was 2 µg/mL; against Escherichia coli [1] it was 1 µg/mL; in the assay on Escherichia coli [2], 1 µg/mL.
`CCOc1ccc2sc(S(C)(=O)=O)nc2c1S(=O)(=O)Nc1ccc(Br)cc1`: the zone of inhibition at 5000 µg/mL is 11 mm in the assay on Staphylococcus aureus [3], 10 mm with Escherichia coli [5] and no more than 7 mm in the assay with Candida albicans [8]. The growth at 0.1 µM in the assay on HeLa [4] worked out at 95.9%. Besides, the zone of inhibition at 1000 µg/mL in the assay on Staphylococcus aureus [6] is 9 mm; in the assay on Escherichia coli [9] it was 9 mm; in the assay on Candida albicans [10], no more than 7 mm. Besides, the growth at 100 µM in the assay with HeLa [7] was -82.3%. In addition, in the assay on HeLa [11], the growth at 1 µM is 73.7%. Moreover, in the assay on HeLa [12], the GI50 turned out to be 6.8 µM. Also, the LC50 in the assay with HeLa [12] was determined as 74.5 µM. In the assay with HeLa [12], this compound yielded a TGI of 40.6 µM. Further, in the assay on HeLa [12], the “growth inhibition (GI)” value is “Dose-dependent effect”. For the same compound, the Activity result with HeLa [13] was “Dose-dependent effect”. Also, in the assay on HeLa [14], the growth at 10 µM is -11.2%.
On to `CS(=O)(=O)c1nc2cc(OCc3ccc(Cl)cc3)ccc2s1`, for which the minimum inhibitory concentration (MIC) in the assay on Pichia kudriavzevii [15] was 20 µg/mL (≈ 56.5 µM); against Nakaseomyces glabratus [16], 50 µg/mL (≈ 141 µM); against Staphylococcus aureus [17] it was 100 µg/mL (≈ 283 µM); with Candida albicans [18], 20 µg/mL (≈ 56.5 µM); against Candida albicans [19], 20 µg/mL (≈ 56.5 µM); in assay [20] it was 100 µg/mL (≈ 283 µM). In addition, the MIC was 100 µg/mL (≈ 283 µM) against Staphylococcus aureus [21]; 50 µg/mL (≈ 141 µM) in the assay with Nakaseomyces glabratus [22]; 50 µg/mL (≈ 141 µM) with Pseudomonas aeruginosa; 100 µg/mL (≈ 283 µM) against Staphylococcus aureus [23]; 20 µg/mL (≈ 56.5 µM) against Pichia kudriavzevii [24]; 20 µg/mL (≈ 56.5 µM) with Escherichia coli [1]. In the assay on Escherichia coli [2], this compound displayed an MIC of 20 µg/mL (≈ 56.5 µM). Also, the figures for the zone of inhibition at 5000 µg/mL with Staphylococcus aureus [3], in the assay on Escherichia coli [5] and in the assay with Candida albicans [8] were 22 mm, 10 mm and 16 mm, respectively. For the same compound, the growth at 0.1 µM with HeLa [4] is 100%. Further, the zone of inhibition at 1000 µg/mL in the assay on Staphylococcus aureus [6] amounted to 13 mm; in the assay on Escherichia coli [9], 9 mm; in the assay on Candida albicans [10], 9 mm. The growth at 100 µM in the assay with HeLa [7] was -50.5%. Further, the growth at 1 µM in the assay with HeLa [11] is 89.9%. It took 33 µM to inhibit growth in the assay on HeLa [12] by half (GI50). For the same compound, the LC50 with HeLa [12] was greater than 100 µM. In addition, in the assay on HeLa [12], net growth stopped (TGI) at 73.3 µM. Also, the “growth inhibition (GI)” value in the assay with HeLa [12] is “Dose-dependent effect”. Moreover, in the assay on HeLa [13], the Activity result was “Dose-dependent effect”. The growth at 10 µM in the assay on HeLa [14] was found to be 60.8%.
With `CCOc1ccc2sc(S(C)(=O)=O)nc2c1N`, the minimal inhibitory concentration (MIC) with Pichia kudriavzevii [15] turned out to be 10 µg/mL (≈ 36.7 µM); against Nakaseomyces glabratus [16] it was 10 µg/mL (≈ 36.7 µM); against Candida albicans [18], 4 µg/mL (≈ 14.7 µM); in the assay with Candida albicans [19], 8 µg/mL (≈ 29.4 µM); in the assay with Nakaseomyces glabratus [22], 10 µg/mL (≈ 36.7 µM); with Pichia kudriavzevii [24], 10 µg/mL (≈ 36.7 µM). Further, the zone of inhibition at 5000 µg/mL in the assay on Staphylococcus aureus [3] was no more than 7 mm; in the assay with Escherichia coli [5], no more than 7 mm; in the assay on Candida albicans [8], 19 mm. The growth at 0.1 µM in the assay on HeLa [4] was 99.5%. Besides, the zone of inhibition at 1000 µg/mL in the assay with Staphylococcus aureus [6] is 17 mm; in the assay on Escherichia coli [9], no more than 7 mm; in the assay with Candida albicans [10], no more than 7 mm. The growth at 100 µM in the assay on HeLa [7] is -31.9%. Moreover, the growth at 1 µM with HeLa [11] is 93%. In the assay with HeLa [12], this compound gave a concentration for 50% growth inhibition (GI50) of 34 µM. The compound also came in with a 50% lethal concentration (LC50) in the assay with HeLa [12] greater than 100 µM. The same compound displayed a concentration for total growth inhibition (TGI) in the assay with HeLa [12] of 74.3 µM. For the same compound, in the assay on HeLa [12], the “growth inhibition (GI)” value is “Dose-dependent effect”. For the same compound, the Activity entry with HeLa [13] was “Dose-dependent effect”. Further, the growth at 10 µM in the assay on HeLa [14] turned out to be 65.6%.
`O=C(O)c1cn(C2CC2)c2cc(N3CCNCC3)c(F)cc2c1=O` [CIPROFLOXACIN]: the minimum inhibitory concentration (MIC) (against Staphylococcus aureus [17]; in assay [20]) was 8 µg/mL (≈ 24.1 µM) throughout.
For `CC(=O)NC[C@H]1CN(c2ccc(N3CCOCC3)c(F)c2)C(=O)O1` [LINEZOLID], the MIC (in the assay on Staphylococcus aureus [17]; in [20]) was 1 µg/mL (≈ 2.96 µM) each time.
